# According to ChEMBL document CHEMBL3992507, “Design, synthesis and evaluation of 4-aminoquinoline-purine hybrids as potential antiplasmodial agents” (Eur J Med Chem, 2017):
# Activity calls are given as the source filed them. No cut-off for these calls is given here.
# Assays:
# Plasmodium falciparum [1] = assay: Antiplasmodial activity against chloroquine-resistant Plasmodium falciparum W2 infected in human RBC assessed as decrease in parasite viability after 72 hrs by LDH assay; type: functional; details: W2, 72 h
# [2] = Selectivity index, ratio of IC50 for African green monkey Vero cells to IC50 for chloroquine-resistant Plasmodium falciparum W2 infected in human RBC; type: toxicity; details: read-out: Ratio IC50
# [3] = Selectivity index, ratio of IC50 for African green monkey Vero cells to IC50 for chloroquine-sensitive Plasmodium falciparum D6 infected in human RBC; type: toxicity; details: read-out: Ratio IC50
# Vero = assay: Cytotoxicity against African green monkey Vero cells after 48 hrs by neutral red uptake assay; type: cell-based; details: Chlorocebus sabaeus
# Plasmodium falciparum [4] = assay: Antiplasmodial activity against chloroquine-sensitive Plasmodium falciparum D6 infected in human RBC assessed as decrease in parasite viability after 72 hrs by LDH assay; type: functional; details: D6, 72 h
# Plasmodium falciparum [5] = assay: Potency index, ratio of chloroquine IC50 to compound IC50 for chloroquine-resistant Plasmodium falciparum W2; type: functional
# Heme [6] = assay: Binding affinity to monomeric heme (unknown origin) assessed as 1:1 stoichiometry for heme-compound complex at 10 uM at pH 5.6 and 7.4 by Job's plot analysis
# [7] = Binding affinity to dimeric heme (unknown origin) assessed as change in absorbance band intensity at 362 nm at 10 uM at pH 5.6 by spectrophotometric titration method
# Heme [8] = assay: Binding affinity to monomeric heme (unknown origin) assessed as decrease in intensity of soret band at 402 nm at pH 5.6 and 7.4 by spectrophotometric titration method
SMILES,IC50 (Plasmodium falciparum [1]) [nM],selectivity ratio [2],selectivity ratio [3],IC50 (Vero) [nM],IC50 (Plasmodium falciparum [4]) [nM],Ratio IC50 (Plasmodium falciparum [5]),Activity (Heme [6]),Activity [7],Activity (Heme [8])
CCN(CC)c1nc(Cl)nc2c1ncn2CCCNc1ccnc2cc(Cl)ccc12,983,> 10.9,> 19.3,> 10700,556,–,–,–,–
Clc1ccc2c(NCCn3cnc4c(N5CCCCC5)nc(Cl)nc43)ccnc2c1,2450,> 4.4,> 31.1,> 10800,347,–,–,–,–
CN(C)c1nc(Cl)nc2c1ncn2CCNc1ccnc2cc(Cl)ccc12,361,> 32.8,> 46.6,> 11900,254,–,–,–,–
C[C@@H]1CC[C@H]2[C@@H](C)C(=O)O[C@@H]3O[C@@]4(C)CC[C@@H]1[C@]32OO4 [ARTEMISININ],–,–,–,> 16900,25,–,–,–,–
CN1CCN(c2nc(Cl)nc3c2ncn3CCNc2ccnc3cc(Cl)ccc23)CC1,122,> 85.4,> 124,> 10400,84,–,–,–,–
CN1CCN(c2nc(Cl)nc3c2ncn3CCCNc2ccnc3cc(Cl)ccc23)CC1,185,> 54.5,> 145,> 10100,69,–,–,–,–
Clc1ccc2c(NCCn3cnc4c(N5CCCCCC5)nc(Cl)nc43)ccnc2c1,729,> 14.3,> 24.9,> 10400,419,–,–,–,–
Clc1ccc2c(NCCCn3cnc4c(N5CCSCC5)nc(Cl)nc43)ccnc2c1,1800,> 5.6,> 22.6,> 10100,446,–,–,–,–
CN(C)c1nc(Cl)nc2c1ncn2CCCNc1ccnc2cc(Cl)ccc12,1090,> 10.5,> 45,> 11500,254,–,–,–,–
CCN1CCN(c2nc(Cl)nc3c2ncn3CCCNc2ccnc3cc(Cl)ccc23)CC1,198,> 49.5,> 101,> 9830,97,–,–,–,–
Clc1ccc2c(NCCCn3cnc4c(N5CCCCCC5)nc(Cl)nc43)ccnc2c1,2380,> 4.3,> 8.3,> 10100,1230,–,–,–,–
Clc1ccc2c(NCCn3cnc4c(N5CCSCC5)nc(Cl)nc43)ccnc2c1,590,9.6,19.5,5680,292,–,–,–,–
Clc1ccc2c(NCCCn3cnc4c(N5CCN(c6ccccc6)CC5)nc(Cl)nc43)ccnc2c1,504,> 17.7,> 47.6,> 8900,187,–,–,–,–
CCN(CC)c1nc(Cl)nc2c1ncn2CCNc1ccnc2cc(Cl)ccc12,6760,> 1.6,> 2.4,> 11100,4650,–,–,–,–
Clc1ccc2c(NCCn3cnc4c(N5CCOCC5)nc(Cl)nc43)ccnc2c1,226,> 47.4,> 53.4,> 10700,201,–,–,–,–
CCN1CCN(c2nc(Cl)nc3c2ncn3CCNc2ccnc3cc(Cl)ccc23)CC1,80,> 125,> 164,> 10100,61,6,Active,Active,Active
Clc1ccc2c(NCCn3cnc4c(N5CCN(c6ccccc6)CC5)nc(Cl)nc43)ccnc2c1,428,9.4,26.2,4040,154,–,–,–,–
Clc1ccc2c(NCCCn3cnc4c(N5CCOCC5)nc(Cl)nc43)ccnc2c1,1150,> 9.1,> 12.5,> 10400,833,–,–,–,–
CCN(CC)CCCC(C)Nc1ccnc2cc(Cl)ccc12 (configuration not stated) [CHLOROQUINE],–,–,–,> 14900,–,–,–,–,–
Clc1ccc2c(NCCn3cnc4c(N5CCCC5)nc(Cl)nc43)ccnc2c1,984,> 11.3,> 25,> 11100,445,–,–,–,–
Clc1ccc2c(NCCCn3cnc4c(N5CCCCC5)nc(Cl)nc43)ccnc2c1,3760,> 2.8,> 3.1,> 10400,3330,–,–,–,–
Clc1ccc2c(NCCCn3cnc4c(N5CCCC5)nc(Cl)nc43)ccnc2c1,1760,> 6.1,> 10,> 10800,1080,–,–,–,–
